Experimental findings from patent US20130289023A1, “METHOD FOR TREATING BRAIN TUMOR” (priority 2012, published 2013) are described below.

For data set [1], the system named is U87MG sphere cells (cancer stem-like cells).
Data set [2] deals with U87MG cells. The data set is described as follows: U87MG subcutaneous tumor in NOD/SCID mice. The class given is in vivo. As to conditions: 5 days/week. The protocol: Female NOD/SCID, 4-6 weeks of age were purchased from the National Laboratory Animal Center (NLAC) (Taipei, Taiwan). All protocols were approved by the institutional animal care committee of Taipei Medical University Hospital Mice were inoculated with U87MG cells in the right flank of NOD/SCID mice (1×10^6 cells/100 μL PBS, subcutaneous infection) and divided into control (sham) and thioridazine-treatment groups (5 mg/kg/day, 5 days/week). N=5 in each group. Tumor burden was measured on a weekly basis using a caliper and calculated using the following formula (a×b^2)/2, where a and b represents the long and short axis of the tumor respectively.
By the end of 6 weeks, animals were humanely sacrificed and tumor biopsies were collected.

Data set [3] relates to U87MG cells. The data set is described as follows: Cell viability / cell death in U87MG. The class given is cell-based. As to conditions: 1 to 10 μM, 72 hr, FIG. 1(B).
Data set [4] relates to GBM8401 cells. The data set is described as follows: Side population assay (flow cytometry) in GBM8401. The class given is cell-based. As to conditions: 10 μM, decreased from 1.26%. The protocol:
(§1) The cells were detached from the dishes with trypsin-EDTA (Invitrogen), and suspended in a single-cell suspension at 1×10^6 cells/mL in Hank's balanced salt solution (HBSS) supplemented with 3% fetal calf serum and 10 mM Hepes. The cells were then incubated at 37° C. for 90 min with 20 μg/mL Hoechst 33342 (Sigma Chemical, St. Louis, Mo.), either alone or in the presence of 50 μmol/L verapamil (Sigma), an inhibitor of the verapamil-sensitive ABC transporter. After incubation, the cells were centrifuged immediately for 5 min at 300 g and 4° C. and resuspended in ice-cold HBSS, The cells were kept on ice to inhibit efflux of the Hoechst dye, and 1 μg/mL propidium Iodide (BD) was added to discriminate dead cells. Finally, these cells were filtered through a 40 μm cell strainer (BD) to obtain a single-cell suspension. Dual-wavelength analysis and purification were performed on a dual-laser PACS. Vantage SE machine (BD). Hoechst 33342 was excited with a 355 nm UV light and emitted blue fluorescence with a 450/20 band-pass (BP) filter and red fluorescence with a 675 nm edge filter long-pass (EFLP). A 610 nm dichroic mirror short-pass (DMSP) was used to separate the emission wavelengths. Pi-positive (dead) cells were excluded from the analysis.

The test system of data set [5] is GBM cells. The data set is described as follows: Autophagy and ER stress markers in GBM cells (western blot). The class given is cell-based. As to conditions: for autophagy in GBM cells: GBM8401 and U87MG cells, western blot markers. The protocol:
(§2) The cells were lysed in a lysis buffer (50 mM Tris-HCl, pH 7.4, 5 mM MgCl2, 1% Nonidet P-40, 150 mMNaCl, 1 mM phenylmethylsulfonyl fluoride). Total protein was isolated and subjected to SDS polyacrylamide gel electrophoresis and electrotransfered onto PVDF membranes (Millipore). Primary antibodies, including p-mTOR (Ser 2448), mTOR, PI3K (P110α), p-Akt (Ser 473), Akt, p-S6K (Ser 424), S6K, p-AMPK (Thrl72), AMPK, and CASP3, were obtained from Cell Signaling and LC3 was from Abgent, and secondary antibodies for anti-mouse and anti-rabbit horseradish preoxidase (HRP)-conjugation were from Chemicon International. The protein detection was performed with enhanced chemiluminescence (ECL™) method captured by a Luminescence Imaging System (LAS-4000™, Fuji Photo Film Co., Ltd),
(§3) We observed several protein expression changes, primarily involved in autophagic and cell growth related pathway, it was shown that GBM cells are more sensitive to agents that induce autophagy than apoptosis. Thus, we examined the PI3K-Akt-mTORcascade with known roles m regulation of autophagy.

The subject of data set [6] is GBM8401 cells. Briefly: MTT cell viability assay in GBM8401. As to conditions: for cell death: GBM8401, 1 to 10 μM, 72 hr, FIG. 1(B). The method, then:
To examine the cytotoxicity of anti-psychotic drugs on malignant glioma, GBM8401 cells were treated with 21 anti-psychotic drugs at 10 μM, respectively, for 72 hr.

Data set [7] concerns GBM8401 cells. Briefly: Western blot analysis in GBM8401. As to conditions: 24 hr. The class given is cell-based. The protocol: as §2, §3
(§4) Pathway analysis of differentially expressed gene signatures obtained from microarray profiling was investigated via Consensus PathDB. Several thioridazine-mediated pathways were highlighted, including pathway in cancer, GPCR signaling, senescence and autophagy, DMA damage response, and G1 to S cell cycle control (FIGS. 4(A) and 4(B)). Because G-protein couple receptors (GPCR) are membrane associated proteins and have been widely recognized as drug targets. Therefore, we tested whether GPCR might be the target of thioridazine.

The subject of data set [8] is primary GBM spheroids. Briefly: Tumor spheroid assay. The format is cell-based. The method, then: For the formation of tumor spheroids, cells were cultured in HEScGRO serum-free medium (human) (Chemicon) supplemented with 20 ng/mL Hegf, 10 ng/mL hFGF-b and NeuroCult MS-A proliferation supplements. Cells were seeded at low densities (1000 cells/mL) in 12-well low adhesion plates at 1 mL, per well Spheroids (tight, spherical, non-adherent masses >90 um in diameter) were counted, and at least 50 spheroids per group were measured with an ocular micrometer. For secondary spheroid-forming assays, primary spheroids were dissociated mechanically and processed as in the primary assay. For the quantification of the percentage of spheroid-forming cells, cells were seeded at one cell per well in 96-well plates, […]

Data set [9] concerns U87MG cells. Briefly: Side population assay (flow cytometry) in U87MG. The class given is cell-based. As to conditions: 10 μM, decreased from 1.43%. The protocol: as §1
Data set [10] concerns U87MG cells. Briefly: Western blot analysis in U87MG. The format is cell-based. As to conditions: 24 hr. The method, then: as §2, §3, §4
Where [11] appears, read: U87MG sphere cells, 10 and 20 μM, 24 hr.

pIC50: −log10 of the molar value. Like-named read-outs stand apart in the source and are kept apart here.

On to trifluoperazine, for which the cell viability result in [1] (setting [11]) was “significantly reduced”.

In the case of prochlorperazine, the cell viability result in data set [1] (U87MG sphere cells, 10 and 15 μM, 24 hr) was “significantly reduced”.

For thioridazine, in data set [2] (5 mg/kg/day, end of 6 weeks), the “tumor samples (biopsies) compared to control mice” value was “significantly smaller in size and less vascularized”. In addition, the “tumor burden compared to vehicle control” value in [2] (i.p. injection 5 mg/kg/day, NOD-SCID mice with U87MG cells) is given as “significantly smaller”. For the same substance, the cell viability in data set [1] (10 µM) was 22%; in [1] (setting [11]) it was “significantly reduced”. The cell death entry in data set [3] and in data set [6] was “dose-dependent increase in cell death” throughout. Further, the entries for the “cancer stem-like cells population (side population)” value in data set [4] and in [9] were 0.03% and 0.1%, respectively. The “autophagy in GBM cells” value in [5] is on record as “induce autophagye”. Further, the “ER stress: IRE1a and ER stress-associated proteins (Bip and CHOP)” value in data set [5] (GBM cells) is given as “accumulation”. In addition, in data set [6], the pIC50 was above 5.00. The “EDNRA, GPR17, GPRC5B (GPCR) expression” value in data set [7] (GBM8401, 10 μM) is “down-regulated”; in data set [10] (10 μM), “down-regulated”. Further, the “LC3-II and phospho-AMPK (THr172)” value is recorded as “up-regulated” in [7] (GBM8401, 5 to 15 μM) and “up-regulated” in data set [10] (5 to 15 μM). For the same substance, the “PI3K, phospho-Akt(Ser 473), phospho-mTOR(Ser 2448), phospho-S6K (Ser 424)” value in data set [7] (GBM8401, 5 to 15 μM) is “down-regulated”; in data set [10] (5 to 15 μM), “down-regulated”. For the same substance, in data set [8], the “formation of primary GBM spheroids” value is “inhibited”.

As to fluphenazine, the cell death result in data set [3] and in [6] was “dose-dependent increase in cell death” in each case. For the same substance, the “autophagy in GBM cells” value in data set [5] is on record as “induce autophagye”.
